Here are results for 29 compounds from patent US11649255B2, “Indazoles as hematopoietic progenitor kinase 1 (HPK1) inhibitors and methods using same” (1st Biotherapeutics, Inc., priority 2020, dated 2023).

The structures appear in SMILES notation. Bounds are passed on as bounds.

As usually defined, the IC50 is the concentration that inhibits the measured activity by half.

For the assay, the target named is recombinant human HPK1 (Homo sapiens (Human), UniProt Q92918). Description: HPK1 kinase assay (ADP-Glo). Format: biochemical. As to conditions: 25 μM ATP, MBP substrate. An outline of the steps:
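Activity was read as ADP formed, detected by ADP-Glo luminescence after the reaction of 5 ng recombinant human HPK1 with MBP and ATP (stocks 0.5 μg/μl and 25 μM) for 40 min at 30 °C. Buffer was Tris pH 7.5 with MgCl2, BSA and DTT, with compound in 0.5% DMSO. IC50 came from inhibition curves.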

Sequence of recombinant human HPK1 (Q92918 whole entry): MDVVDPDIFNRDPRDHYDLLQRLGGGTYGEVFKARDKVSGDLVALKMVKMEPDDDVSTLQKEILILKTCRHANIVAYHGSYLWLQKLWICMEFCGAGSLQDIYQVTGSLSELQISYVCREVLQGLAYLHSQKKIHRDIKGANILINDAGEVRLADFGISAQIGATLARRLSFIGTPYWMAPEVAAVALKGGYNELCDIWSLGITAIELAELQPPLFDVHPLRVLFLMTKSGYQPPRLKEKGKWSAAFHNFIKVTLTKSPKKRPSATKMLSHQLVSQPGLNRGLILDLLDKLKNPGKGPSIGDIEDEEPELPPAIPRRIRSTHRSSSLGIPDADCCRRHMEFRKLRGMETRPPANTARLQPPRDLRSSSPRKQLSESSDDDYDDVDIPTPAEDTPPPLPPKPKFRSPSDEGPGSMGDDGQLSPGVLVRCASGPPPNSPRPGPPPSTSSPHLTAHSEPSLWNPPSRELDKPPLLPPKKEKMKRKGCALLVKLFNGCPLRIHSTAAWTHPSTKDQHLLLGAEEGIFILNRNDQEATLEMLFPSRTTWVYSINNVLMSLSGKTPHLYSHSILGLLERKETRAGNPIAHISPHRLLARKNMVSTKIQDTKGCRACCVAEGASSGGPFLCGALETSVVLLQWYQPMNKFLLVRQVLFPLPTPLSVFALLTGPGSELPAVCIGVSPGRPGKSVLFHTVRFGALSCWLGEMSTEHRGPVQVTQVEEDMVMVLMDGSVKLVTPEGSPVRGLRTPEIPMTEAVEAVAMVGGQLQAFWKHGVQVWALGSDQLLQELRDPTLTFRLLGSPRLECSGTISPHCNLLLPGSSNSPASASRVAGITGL

Turning to `COc1c(F)cc2[nH]ncc2c1-c1ccc2nc(NC(=O)C3CC3)cn2c1` [Example 252, N-(6-(6-fluoro-5-methoxy-1H-indazol-4-yl)imidazo[1,2-a]pyridin-2-yl)cyclopropanecarboxamide], the IC50 is < 100 nM.
The result for `O=C(Nc1cn2cc(-c3c(C(F)F)c(F)cc4[nH]ncc34)ccc2n1)[C@@H]1C[C@@H]1F` [Example 253, (1S,2S)-N-(6-(5-(difluoromethyl)-6-fluoro-1H-indazol-4-yl)imidazo[1,2-a]pyridin-2-yl)-2-fluorocyclopropane-1-carboxamide] reads < 100 nM; that for `O=C(Nc1cn2cc(-c3c(C(F)F)c(F)cc4[nH]ncc34)ccc2n1)C1CC1` [Example 255, N-(6-(5-(difluoromethyl)-6-fluoro-1H-indazol-4-yl)imidazo[1,2-a]pyridin-2-yl)cyclopropanecarboxamide], < 100 nM; that for `O=C(Nc1cn2cc(-c3c(Cl)c(F)c(Cl)c4[nH]ncc34)ccc2n1)[C@@H]1C[C@@H]1F` [Example 256, (1S,2S)-N-(6-(5,7-dichloro-6-fluoro-1H-indazol-4-yl)imidazo[1,2-a]pyridin-2-yl)-2-fluorocyclopropane-1-carboxamide], < 100 nM.
The result for `Cc1c(F)c(C)c2[nH]ncc2c1-c1ccc2nc(NC(=O)[C@@H]3C[C@@H]3F)cn2c1` [Example 257, (1S,2S)-2-fluoro-N-(6-(6-fluoro-5,7-dimethyl-1H-indazol-4-yl)imidazo[1,2-a]pyridin-2-yl)cyclopropane-1-carboxamide] reads < 100 nM.
The result for `CP(C)(=O)c1c(F)c(Cl)c(-c2ccc3nc(NC(=O)[C@@H]4C[C@@H]4F)cn3c2)c2cn[nH]c12` [Example 259, (1S,2S)-N-(6-(5-chloro-7-(dimethylphosphoryl)-6-fluoro-1H-indazol-4-yl)imidazo[1,2-a]pyridin-2-yl)-2-fluorocyclopropane-1-carboxamide] reads > 1000 nM; that for `Cc1c(F)c(Cl)c2[nH]ncc2c1-c1ccc2nc(NC(=O)[C@@H]3C[C@@H]3F)cn2c1` [Example 260, (1S,2S)-N-(6-(7-chloro-6-fluoro-5-methyl-1H-indazol-4-yl)imidazo[1,2-a]pyridin-2-yl)-2-fluorocyclopropane-1-carboxamide], < 100 nM; that for `O=C(Nc1cn2cc(-c3c(Cl)c(F)c(Br)c4[nH]ncc34)ccc2n1)[C@@H]1C[C@@H]1F` [Example 261, (1S,2S)-N-(6-(7-bromo-5-chloro-6-fluoro-1H-indazol-4-yl)imidazo[1,2-a]pyridin-2-yl)-2-fluorocyclopropane-1-carboxamide], < 100 nM.
Turning to `Cc1c(F)c(F)c2[nH]ncc2c1-c1ccc2nc(NC(=O)[C@@H]3C[C@@H]3F)cn2c1` [Example 262, (1S,2S)-N-(6-(6,7-difluoro-5-methyl-1H-indazol-4-yl)imidazo[1,2-a]pyridin-2-yl)-2-fluorocyclopropane-1-carboxamide], the 50% inhibitory concentration (IC50) was < 100 nM.
The result for `Cc1c(F)c(C(F)(F)F)c2[nH]ncc2c1-c1ccc2nc(NC(=O)[C@@H]3C[C@@H]3F)cn2c1` [Example 263, (1S,2S)-2-fluoro-N-(6-(6-fluoro-5-methyl-7-(trifluoromethyl)-1H-indazol-4-yl)imidazo[1,2-a]pyridin-2-yl)cyclopropane-1-carboxamide] reads < 100 nM; that for `C=Cc1cc(C)c(-c2ccc3nc(NC(=O)[C@@H]4C[C@@H]4F)cn3c2)c2cn[nH]c12` [Example 264, (1S,2S)-2-fluoro-N-(6-(5-methyl-7-vinyl-1H-indazol-4-yl)imidazo[1,2-a]pyridin-2-yl)cyclopropane-1-carboxamide], < 100 nM.
For the compound `CNc1c(F)c(Cl)c(-c2ccc3nc(NC(=O)[C@@H]4C[C@@H]4F)cn3c2)c2cn[nH]c12` [Example 265, (1S,2S)-N-(6-(5-chloro-6-fluoro-7-(methylamino)-1H-indazol-4-yl)imidazo[1,2-a]pyridin-2-yl)-2-fluorocyclopropane-1-carboxamide], the IC50 is < 100 nM.
`CSc1c(F)c(Cl)c(-c2ccc3nc(NC(=O)[C@@H]4C[C@@H]4F)cn3c2)c2cn[nH]c12` [Example 266, (1S,2S)-N-(6-(5-chloro-6-fluoro-7-(methylthio)-1H-indazol-4-yl)imidazo[1,2-a]pyridin-2-yl)-2-fluorocyclopropane-1-carboxamide]: the IC50 is < 100 nM.
The same measure for `CS(=O)(=O)c1c(F)c(Cl)c(-c2ccc3nc(NC(=O)[C@@H]4C[C@@H]4F)cn3c2)c2cn[nH]c12` [Example 267, (1S,2S)-N-(6-(5-chloro-6-fluoro-7-(methylsulfonyl)-1H-indazol-4-yl)imidazo[1,2-a]pyridin-2-yl)-2-fluorocyclopropane-1-carboxamide]: 101 to 500 nM; for `Cc1c(F)c(Br)c2[nH]ncc2c1-c1ccc2nc(NC(=O)[C@@H]3C[C@@H]3F)cn2c1` [Example 268, (1S,2S)-N-(6-(7-bromo-6-fluoro-5-methyl-1H-indazol-4-yl)imidazo[1,2-a]pyridin-2-yl)-2-fluorocyclopropane-1-carboxamide]: < 100 nM; for `CSc1c(F)c(C)c(-c2ccc3nc(NC(=O)[C@@H]4C[C@@H]4F)cn3c2)c2cn[nH]c12` [Example 269, (1S,2S)-2-fluoro-N-(6-(6-fluoro-5-methyl-7-(methylthio)-1H-indazol-4-yl)imidazo[1,2-a]pyridin-2-yl)cyclopropane-1-carboxamide]: < 100 nM.
The result for `Cc1c(F)c(S(C)(=O)=O)c2[nH]ncc2c1-c1ccc2nc(NC(=O)[C@@H]3C[C@@H]3F)cn2c1` [Example 270, (1S,2S)-2-fluoro-N-(6-(6-fluoro-5-methyl-7-(methylsulfonyl)-1H-indazol-4-yl)imidazo[1,2-a]pyridin-2-yl)cyclopropane-1-carboxamide] reads 101 to 500 nM; that for `COc1c(F)c(C)c(-c2ccc3nc(NC(=O)[C@@H]4C[C@@H]4F)cn3c2)c2cn[nH]c12` [Example 271, (1S,2S)-2-fluoro-N-(6-(6-fluoro-7-methoxy-5-methyl-1H-indazol-4-yl)imidazo[1,2-a]pyridin-2-yl)cyclopropane-1-carboxamide], < 100 nM.
The result for `COc1c(F)c(Cl)c(-c2ccc3nc(NC(=O)[C@@H]4C[C@@H]4F)cn3c2)c2cn[nH]c12` [Example 272, (1S,2S)-N-(6-(5-chloro-6-fluoro-7-methoxy-1H-indazol-4-yl)imidazo[1,2-a]pyridin-2-yl)-2-fluorocyclopropane-1-carboxamide] reads < 100 nM; that for `Cc1c(F)c(N(C)C)c2[nH]ncc2c1-c1ccc2nc(NC(=O)[C@@H]3C[C@@H]3F)cn2c1` [Example 273, (1S,2S)-N-(6-(7-(dimethylamino)-6-fluoro-5-methyl-1H-indazol-4-yl)imidazo[1,2-a]pyridin-2-yl)-2-fluorocyclopropane-1-carboxamide], < 100 nM.
Consider `C=CC(=O)Nc1cc(C)c(-c2ccc3nc(NC(=O)[C@@H]4C[C@@H]4F)cn3c2)c2cn[nH]c12` [Example 274, (1S,2S)-N-(6-(7-acrylamido-5-methyl-1H-indazol-4-yl)imidazo[1,2-a]pyridin-2-yl)-2-fluorocyclopropane-1-carboxamide], for which the concentration for half-maximal inhibition (IC50) is < 100 nM.
`CCOc1c(F)c(Cl)c(-c2ccc3nc(NC(=O)[C@@H]4C[C@@H]4F)cn3c2)c2cn[nH]c12` [Example 275, (1S,2S)-N-(6-(5-chloro-7-ethoxy-6-fluoro-1H-indazol-4-yl)imidazo[1,2-a]pyridin-2-yl)-2-fluorocyclopropane-1-carboxamide]: the IC50 is < 100 nM.
As for `C=CC(=O)Nc1cc(Cl)c(-c2ccc3nc(NC(=O)[C@@H]4C[C@@H]4F)cn3c2)c2cn[nH]c12` [Example 276, (1S,2S)-N-(6-(7-acrylamido-5-chloro-1H-indazol-4-yl)imidazo[1,2-a]pyridin-2-yl)-2-fluorocyclopropane-1-carboxamide], the concentration for half-maximal inhibition (IC50) was < 100 nM.
The result for `CN1CCN(c2c(F)c(Cl)c(-c3ccc4nc(NC(=O)[C@@H]5C[C@@H]5F)cn4c3)c3cn[nH]c23)CC1` [Example 277, (1S,2S)-N-(6-(5-chloro-6-fluoro-7-(4-methylpiperazin-1-yl)-1H-indazol-4-yl)imidazo[1,2-a]pyridin-2-yl)-2-fluorocyclopropane-1-carboxamide] reads 101 to 500 nM; that for `Cc1ccc2[nH]ncc2c1-c1ccc2nc(NC(=O)C3CC3CO)cn2c1` (centres unmarked) [Example 278, 2-(hydroxymethyl)-N-(6-(5-methyl-1H-indazol-4-yl)imidazo[1,2-a]pyridin-2-yl)cyclopropane-1-carboxamide], > 1000 nM; that for `O=C(Nc1cn2cc(-c3c(Cl)c(F)c(N4CCOCC4)c4[nH]ncc34)ccc2n1)[C@@H]1C[C@@H]1F` [Example 279, (1S,2S)-N-(6-(5-chloro-6-fluoro-7-morpholino-1H-indazol-4-yl)imidazo[1,2-a]pyridin-2-yl)-2-fluorocyclopropane-1-carboxamide], < 100 nM.
The same measure for `CCNc1c(F)c(Cl)c(-c2ccc3nc(NC(=O)[C@@H]4C[C@@H]4F)cn3c2)c2cn[nH]c12` [Example 280, (1S,2S)-N-(6-(5-chloro-7-(ethylamino)-6-fluoro-1H-indazol-4-yl)imidazo[1,2-a]pyridin-2-yl)-2-fluorocyclopropane-1-carboxamide]: < 100 nM; for `CCN(CC)c1c(F)c(Cl)c(-c2ccc3nc(NC(=O)[C@@H]4C[C@@H]4F)cn3c2)c2cn[nH]c12` [Example 281, (1S,2S)-N-(6-(5-chloro-7-(diethylamino)-6-fluoro-1H-indazol-4-yl)imidazo[1,2-a]pyridin-2-yl)-2-fluorocyclopropane-1-carboxamide]: < 100 nM.
With `O=C(Nc1cn2cc(-c3c(Cl)c(F)c(N4CCCC4)c4[nH]ncc34)ccc2n1)[C@@H]1C[C@@H]1F` [Example 282, (1S,2S)-N-(6-(5-chloro-6-fluoro-7-(pyrrolidin-1-yl)-1H-indazol-4-yl)imidazo[1,2-a]pyridin-2-yl)-2-fluorocyclopropane-1-carboxamide], the concentration for half-maximal inhibition (IC50) is < 100 nM.
